Results as given in US5250524A, “Bile acid derivatives, process for their preparation and use of these compounds as pharmaceuticals” (Hoechst Aktiengesellschaft, priority 1990, dated 1993).
Like-named read-outs stand apart in the source and are kept apart here.

Target: T1, Na^+ -dependent bile acid transport system (Oryctolagus cuniculus, UniProt Q28727)
T1 construct: Preparation of brush-border membrane vesicles from the ileum of rabbits; from tissue; host or cells: brush-border membrane vesicles from the terminal small intestine (ileum) of male New Zealand rabbits
T1 sequence (Q28727 1-347): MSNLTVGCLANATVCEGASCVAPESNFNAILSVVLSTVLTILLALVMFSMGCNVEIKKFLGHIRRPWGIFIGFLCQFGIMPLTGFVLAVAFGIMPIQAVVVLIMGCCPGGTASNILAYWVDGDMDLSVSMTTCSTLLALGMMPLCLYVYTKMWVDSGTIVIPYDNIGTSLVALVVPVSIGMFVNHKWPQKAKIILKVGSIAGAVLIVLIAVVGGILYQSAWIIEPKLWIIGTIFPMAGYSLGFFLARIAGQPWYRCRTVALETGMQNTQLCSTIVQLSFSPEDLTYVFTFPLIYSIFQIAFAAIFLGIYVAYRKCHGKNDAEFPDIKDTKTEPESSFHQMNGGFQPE
Assay: Inhibition of Na^+ -dependent [^3 H]taurocholate absorption into brush-border membrane vesicles of the ileum
Format: biochemical, rabbit
Conditions: taurocholate 50 μM, pH 7.4, customarily 1 min
Procedure: The pharmacological data include a series of -tests in which the interaction of the compounds according to the invention with the intestinal bile acid transport system was investigated in the terminal small intestine:
1. Preparation of brush-border membrane vesicles from the ileum of rabbits
The preparation of brush-border membrane vesicles from the intestinal cells of the small intestine was carried out using the so-called Mg^2+ precipitation method. Male New Zealand rabbits (2-2.5 kg body weight) were sacrificed by intravenous injection of 0.5 ml of an aqueous solution of 2.5 mg of tetracaine HCl, 100 T 61® and 25 mg of mebezonium iodide. The small intestine was removed and rinsed with ice-cold physiological saline solution. The terminal […] of the small intestine (measured in the oral-rectal direction, i.e. the terminall ileum, which contains the active Na^+ -dependent bile acid transport system) were used for preparation of the brush-border membrane vesicles. The intestines were frozen at -80° C. under nitrogen in plastic bags. The frozen intestines were thawed in a water bath at 30° C. in order to prepare the membrane vesicles. The mucosa was scraped off and suspended in 60 ml of ice-cold 12 mM trio/HCl buffer (pH 7.1)/300 mM mannitol, 5 mM EGTA/10 mg/l of phenylmethylsulfonyl fluoride/1 mg/1 of soybean trypsin inhibitor (32 U/mg)/0.5 mg/l of bovine lung trypsin inhibitor (193 U/mg)/0.5 mg/l of bacitracin. After diluting to 300 ml with ice-cold distilled water, the suspension was homogenized with ice-cooling for 3 minutes at 75% of maximum power using an Ultraturrax (18 rod, IKA Werk Staufen, Federal Republic of Germany). After addition of 3 ml of 1M MgCl2 solution (final Concentration 10 mM), the homogenate was allowed to stand at 0° C. for exactly 1 minute. As a result of addition of Mg^2+, the cell membranes aggregate and precipitate with the exception of the brush-border membranes. After centrifugation at 3,000×g (5,000 rpm, SS-34 rotor) for 15 minutes, the precipitate is discarded and the supernatant which contains the brush-border membranes is centrifuged at 26,700×g (15,000 rpm, SS-34 rotor) for 30 minutes. The supernatant was discarded, and the precipitate was rehomogenized in 60 ml of 12 mM tris/HCl buffer (pH 7.1)/60 mM mannitol, 5 mM EGTA using a Potter Elvejhem homogenizer (Braun Melsungen, 900 rpm, 10 strokes). After addition of 0.1 ml of 1M MgCl2 solution and an incubation time of 15 minutes at 0° C., the mixture was again centrifuged at 3,000×g for 15 minutes. The supernatant was then again centrifuged at […] ( 15,000 rpm, SS-34 rotor) for 30 minutes. The precipitate was taken up in 30 ml of 10 mM tris/hepes buffer (pH 7.4) /300 mM mannitol and homogeneously resuspended by 20 strokes in a Potter Elvejhem homogenizer at 1,000 rpm. After centrifugation at 48,000×g (20,000 rpm, SS-34 rotor) for 30 minutes, the precipitate was taken up in 0.5 to 2 ml of tris/hepes buffer (pH 7.4)/280 mM mannitol (final concentration 20 mg/ml) and resuspended with the aid of a tuberculin syringe using a 27 gauge needle. The vesicles were either used immediately after preparation for transport investigations or stored at -196° C. in liquid nitrogen in 4 mg portions.
2. Inhibition of Na^+ -dependent [^3 H]taurocholate absorption into brush-border membrane vesicles of the ileum
The absorption of substrates into brush-border membrane vesicles was determined by means of the so-called membrane filtration technique. 10 μl of the vesicle suspension (100 μg of protein) were pipetted on the wall of a polystyrene incubation tube (11×70 mm) as a drop which contained the incubation medium together with the corresponding ligands (90 μl). […]

[1] = IC50, [^3 H]taurocholate absorption, rabbit ileum brush-border membrane vesicles
[2] = IC50 Na, Na^+ -dependent transport component (difference between absorption in Na-T-B and K-T-B)
[3] = Na^+ -dependent transport component (difference between absorption in Na-T-B and K-T-B), read-out: IC50 Na
[4] = [^3 H]taurocholate absorption, rabbit ileum brush-border membrane vesicles, read-out: IC50

Row | SMILES | IC50 [1] [µM] | IC50 [2] [µM] | IC50 [3] [µM] | IC50 [4] [µM]
1 | C[C@H](CCC(=O)NCCCNC(=O)CCC(=O)NCCO[C@H]1CC[C@@]2(C)[C@@H](C1)C[C@@H](O)[C@@H]1[C@@H]2C[C@H](O)[C@]2(C)[C@@H]([C@H](C)CCC(=O)NCCS(=O)(=O)O)CC[C@@H]12)[C@H]1CC[C@H]2[C@@H]3[C@H](O)C[C@@H]4C[C@H](OCc5ccccc5)CC[C@]4(C)[C@H]3C[C@H](O)[C@]12C [172 (taurine conj.)] | 32 | 20 | – | –
2 | C[C@H](CCC(=O)NCC(=O)O)[C@H]1CC[C@H]2[C@@H]3[C@H](O)C[C@@H]4C[C@@H](OCCNC(=O)CCC(=O)NCCCNC(=O)CC[C@@H](C)[C@H]5CC[C@H]6[C@@H]7[C@H](O)C[C@@H]8C[C@H](OCc9ccccc9)CC[C@]8(C)[C@H]7C[C@H](O)[C@]56C)CC[C@]4(C)[C@H]3CC[C@]12C [191 (glycine conj.)] | 27 | 18 | – | –
3 | C[C@H](CCC(=O)NCCS(=O)(=O)O)[C@H]1CC[C@H]2[C@@H]3[C@H](O)C[C@@H]4C[C@@H](OCCNC(=O)CCC(=O)NCCCNC(=O)CC[C@@H](C)[C@H]5CC[C@H]6[C@@H]7[C@H](O)C[C@@H]8C[C@H](OCc9ccccc9)CC[C@]8(C)[C@H]7C[C@H](O)[C@]56C)CC[C@]4(C)[C@H]3CC[C@]12C [191 (taurine conj.)] | 18 | 14 | – | –
4 | C[C@H](CCC(=O)NCCO[C@H]1CC[C@@]2(C)[C@@H](C1)C[C@@H](O)[C@@H]1[C@@H]2C[C@H](O)[C@]2(C)[C@@H]([C@H](C)CCC(=O)NCC(=O)O)CC[C@@H]12)[C@H]1CC[C@H]2[C@@H]3[C@H](O)C[C@@H]4C[C@H](O)CC[C@]4(C)[C@H]3C[C@H](O)[C@]12C [368 (glycine conj.)] | 48 | 16 | – | –
5 | C[C@H](CCC(=O)NCCO[C@H]1CC[C@@]2(C)[C@@H](C1)C[C@@H](O)[C@@H]1[C@@H]2C[C@H](O)[C@]2(C)[C@@H]([C@H](C)CCC(=O)NCCS(=O)(=O)O)CC[C@@H]12)[C@H]1CC[C@H]2[C@@H]3[C@H](O)C[C@@H]4C[C@H](OCc5ccccc5)CC[C@]4(C)[C@H]3C[C@H](O)[C@]12C [369 (taurine conj.)] | 50 | 18 | – | –
6 | C[C@H](CCC(=O)O)[C@H]1CC[C@H]2[C@@H]3[C@H](O)C[C@@H]4C[C@@H](OCCNC(=O)CCC(=O)NCCCNC(=O)CC[C@@H](C)[C@H]5CC[C@H]6[C@@H]7[C@H](O)C[C@@H]8C[C@H](OC(c9ccccc9)c9ccccc9)CC[C@]8(C)[C@H]7C[C@H](O)[C@]56C)CC[C@]4(C)[C@H]3C[C@H](O)[C@]12C [Example 170] | – | – | 14 | 25
7 | C[C@H](CCC(=O)O)[C@H]1CC[C@H]2[C@@H]3[C@H](O)C[C@@H]4C[C@@H](OCCNC(=O)CCC(=O)NCCCNC(=O)CC[C@@H](C)[C@H]5CC[C@H]6[C@@H]7[C@H](O)C[C@@H]8C[C@H](OCc9ccccc9)CC[C@]8(C)[C@H]7C[C@H](O)[C@]56C)CC[C@]4(C)[C@H]3CC[C@]12C [Example 191] | – | – | 29 | 58
8 | C[C@H](CCC(=O)NCCO[C@H]1CC[C@@]2(C)[C@@H](C1)C[C@@H](O)[C@@H]1[C@@H]2C[C@H](O)[C@]2(C)[C@@H]([C@H](C)CCC(=O)O)CC[C@@H]12)[C@H]1CC[C@H]2[C@@H]3[C@H](O)C[C@@H]4C[C@H](O)CC[C@]4(C)[C@H]3C[C@H](O)[C@]12C [Example 368] | – | – | 18 | 45
9 | C[C@H](CCC(=O)NCCO[C@H]1CC[C@@]2(C)[C@@H](C1)C[C@@H](O)[C@@H]1[C@@H]2C[C@H](O)[C@]2(C)[C@@H]([C@H](C)CCC(=O)O)CC[C@@H]12)[C@H]1CC[C@H]2[C@@H]3[C@H](O)C[C@@H]4C[C@H](OCc5ccccc5)CC[C@]4(C)[C@H]3C[C@H](O)[C@]12C [Example 369] | – | – | 20 | 55
10 | C[C@H](CCC(=O)NCCS(=O)(=O)O)[C@H]1CC[C@H]2[C@@H]3[C@H](O)C[C@@H]4C[C@@H](OCCNC(=O)CCC(=O)NCCCNC(=O)CC[C@@H](C)[C@H]5CC[C@H]6[C@@H]7[C@H](O)C[C@@H]8C[C@H](OC(c9ccccc9)c9ccccc9)CC[C@]8(C)[C@H]7C[C@H](O)[C@]56C)CC[C@]4(C)[C@H]3C[C@H](O)[C@]12C [Example 527] | – | – | 10 | 20
11 | C[C@H](CCC(=O)NCC(=O)O)[C@H]1CC[C@H]2[C@@H]3[C@H](O)C[C@@H]4C[C@@H](OCCNC(=O)CCC(=O)NCCCNC(=O)CC[C@@H](C)[C@H]5CC[C@H]6[C@@H]7[C@H](O)C[C@@H]8C[C@H](OC(c9ccccc9)c9ccccc9)CC[C@]8(C)[C@H]7C[C@H](O)[C@]56C)CC[C@]4(C)[C@H]3C[C@H](O)[C@]12C [Example 528] | – | – | 16 | 26
12 | COC(=O)CC[C@@H](C)[C@H]1CC[C@H]2[C@@H]3[C@H](O)C[C@@H]4C[C@@H](OCCNC(=O)CCC(=O)NCCO[C@H]5CC[C@@]6(C)[C@@H](C5)C[C@@H](O)[C@@H]5[C@@H]6C[C@H](O)[C@]6(C)[C@@H]([C@H](C)CCC(=O)OC)CC[C@@H]56)CC[C@]4(C)[C@H]3C[C@H](O)[C@]12C [Example 531] | – | – | 18 | > 50
13 | C[C@H](CCC(=O)O)[C@H]1CC[C@H]2[C@@H]3[C@H](O)C[C@@H]4C[C@@H](OCCNC(=O)CCC(=O)NCCO[C@H]5CC[C@@]6(C)[C@@H](C5)C[C@@H](O)[C@@H]5[C@@H]6C[C@H](O)[C@]6(C)[C@@H]([C@H](C)CCC(=O)O)CC[C@@H]56)CC[C@]4(C)[C@H]3C[C@H](O)[C@]12C [Example 532] | – | – | 10 | 30
